Measurements taken from publication PMC7065246 (Journal of the American Chemical Society, 2020).

Legend:
[1] = target: T1, PhqK (Penicillium fellutanum, UniProt L0E4H0); assay: Michaelis-Menten kinetics of spirocyclization; assay type: biochemical; conditions: FAD-dependent monooxygenase reaction; details in supplement
[2] = target: T1, PhqK; assay: crystal structures; assay type: binding; conditions: out conformation with and without substrate

T1 sequence (L0E4H0 whole entry): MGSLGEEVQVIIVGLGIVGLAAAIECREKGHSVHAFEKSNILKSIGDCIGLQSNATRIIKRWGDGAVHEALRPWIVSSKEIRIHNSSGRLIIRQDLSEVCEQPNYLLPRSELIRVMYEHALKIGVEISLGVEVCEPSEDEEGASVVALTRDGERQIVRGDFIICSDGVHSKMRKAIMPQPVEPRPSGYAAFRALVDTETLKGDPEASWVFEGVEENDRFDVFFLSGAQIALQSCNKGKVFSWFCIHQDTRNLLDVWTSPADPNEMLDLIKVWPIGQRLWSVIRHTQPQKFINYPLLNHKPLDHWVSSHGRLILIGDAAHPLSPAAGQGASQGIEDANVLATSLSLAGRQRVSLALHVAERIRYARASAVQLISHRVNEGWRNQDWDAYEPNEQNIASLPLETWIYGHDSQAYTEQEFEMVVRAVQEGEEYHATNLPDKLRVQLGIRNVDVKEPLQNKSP

Row | Compound | Km [1] [µM] | crystal structures (ligand-free 1.71 Å and substrate complexes) [2]
1 | paraherquamide L [compound 15] | 19.4 ± 5.2 | 
2 | Cc1cc2nc3c(=O)[nH]c(=O)nc-3n(C[C@H](O)[C@H](O)[C@H](O)COP(=O)(O)OP(=O)(O)OC[C@H]3O[C@@H](n4cnc5c(N)ncnc54)[C@H](O)[C@@H]3O)c2cc1C [FAD] |  | substrate bound and unbound PhqK structures, the flavin was observed in the “out” conformation
